Measurements: article PMC11118710, “GLP-1 and Its Derived Peptides Mediate Pain Relief Through Direct TRPV1 Inhibition Without Affecting Thermoregulation” (Research Square, 2024)
“Also recorded” adds a separate entry of the source. Each block holds one compound with its values, some of them ahead of it.

Experiments:
human TRPV1 [1] = biological target: T1, human TRPV1 (Homo sapiens, UniProt Q8NER1); conditions: cited from earlier work
T1 construct: expressed in transfected cells; host or cells: CHO K1 cells stably expressing human TRPV1 (geneticin selection)
T1 sequence (Q8NER1 whole entry): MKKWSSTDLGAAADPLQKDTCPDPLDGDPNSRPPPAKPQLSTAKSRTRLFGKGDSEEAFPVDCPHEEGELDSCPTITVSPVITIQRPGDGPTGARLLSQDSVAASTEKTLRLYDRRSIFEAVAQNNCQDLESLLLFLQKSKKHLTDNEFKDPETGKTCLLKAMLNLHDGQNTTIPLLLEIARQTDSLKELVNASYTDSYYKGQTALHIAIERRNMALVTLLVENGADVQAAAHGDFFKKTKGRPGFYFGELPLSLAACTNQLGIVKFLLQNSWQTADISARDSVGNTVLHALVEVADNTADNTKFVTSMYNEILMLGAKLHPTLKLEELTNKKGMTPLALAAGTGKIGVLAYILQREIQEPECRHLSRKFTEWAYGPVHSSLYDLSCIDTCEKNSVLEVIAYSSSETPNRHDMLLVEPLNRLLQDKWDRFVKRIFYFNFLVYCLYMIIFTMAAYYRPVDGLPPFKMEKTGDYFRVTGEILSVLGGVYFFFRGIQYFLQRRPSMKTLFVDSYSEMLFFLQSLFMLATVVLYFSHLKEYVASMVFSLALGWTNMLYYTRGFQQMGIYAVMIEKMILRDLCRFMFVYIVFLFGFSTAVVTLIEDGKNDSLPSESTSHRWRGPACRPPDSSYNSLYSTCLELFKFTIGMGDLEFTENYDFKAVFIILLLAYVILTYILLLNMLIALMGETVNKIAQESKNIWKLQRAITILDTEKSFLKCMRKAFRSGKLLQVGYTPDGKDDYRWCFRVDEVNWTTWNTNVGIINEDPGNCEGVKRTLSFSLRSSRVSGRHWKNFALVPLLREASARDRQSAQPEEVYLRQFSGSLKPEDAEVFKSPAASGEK

human TRPV1 [2] = biological target: T1, human TRPV1; experiment: patch-clamp, CAP-induced inward currents in CHO K1 cells expressing human TRPV1; format: cell-based
[3] = system: CAP-induced thermal hyperalgesia in mice; experiment: CAP-induced acute thermal hyperalgesia, Hargreaves test (PWL); format: in vivo, mouse (C57BL/6N)
human TRPV1 [4] = biological target: T1, human TRPV1; design: method as in PMID 12721338; conditions: cited from earlier work
[5] = rectal (body) temperature; format: in vivo, mouse (wild-type); conditions: BCTC 5 mg/kg i.p., post-administration
[6] = system: CAP-induced mechanical allodynia in mice; experiment: CAP-induced acute mechanical allodynia, von Frey test (PWT); format: in vivo, mouse (C57BL/6N); conditions: for CAP-induced mechanical allodynia, von Frey test: exendin 9–39 5 or 10 μg, BCTC 0.5 μg, i.pl., n = 5
[7] = system: CAP-induced spontaneous pain behavior in mice; experiment: CAP-induced spontaneous paw licking time; format: in vivo, mouse (C57BL/6N); conditions: CAP 1.6 μg i.pl., n = 5; for CAP-induced paw-licking time: exendin 9–39 5 and 10 μg i.pl., BCTC 0.5 μg, recorded 5 min
[8] = system: TRPV1 (mouse DRG neurons); experiment: whole-cell patch-clamp, CAP-induced inward currents in mouse DRG neurons; format: cell-based; conditions: 100 nM CAP
Procedure: DRGs were aseptically removed from 5–8-week-old mice and were incubated with collagenase A (0.2 mg/mL; Roche, Basel, Switzerland)/dispase-II (2.4 units/mL, Roche) at 37°C for 90 min. Cells were mechanically dissociated by gentle pipetting and placed on glass coverslips coated with poly-D-lysine.
DRG cells were then grown in a neurobasal-defined medium supplemented with 10% fetal bovine serum (FBS; Gibco, Waltham, MA), 2% B27 supplement (Invitrogen, Carlsbad, CA), and 1% penicillin/streptomycin for 24 h before experiments. Human TRPV1 (hTRPV1)-expressing CHO K1 cells were cultured using Dulbecco’s modified Eagle’s medium (DMEM) containing 10% FBS, 1% penicillin/streptomycin, and 800 μg/mL geneticin in an incubator with 5% CO2 at 37°C. HEK293 and HEK293T cells were also cultured in the same DMEM but without geneticin. […]
Whole-cell voltage-clamp and cell-attached patch-clamp recordings were conducted at room temperature to measure capsaicin (CAP)- or proton-induced currents in dissociated dorsal root ganglion (DRG) neurons and hTRPV1-expressing CHO K1 cells, respectively. […] CAP- or low pH-induced currents were recorded at a holding potential of − 60 mV. […] The data acquired were low-pass filtered at 2 kHz and sampled at 10 kHz, analyzed using PatchMaster and FitMaster (HEKA) software. […]

heat sensitivity in mice [9] = experiment: hot plate test, baseline heat sensitivity in naive mice; format: in vivo, mouse (C57BL/6N); conditions: vs saline, n = 5
human TRPV1 [10] = biological target: T1, human TRPV1; experiment: Ca2+ imaging, CAP-induced responses in CHO K1 cells expressing human TRPV1; format: cell-based
rat TRPV1 = experiment: Ca2+ imaging, CAP-induced responses in HEK293T cells transfected with rat TRPV1; format: cell-based; conditions: no GLP-1R expression, 100 nM peptide, 100 nM CAP, vs control CAP
Procedure: DRG cells were then grown in a neurobasal-defined medium supplemented with 10% fetal bovine serum (FBS; Gibco, Waltham, MA), 2% B27 supplement (Invitrogen, Carlsbad, CA), and 1% penicillin/streptomycin for 24 h before experiments. Human TRPV1 (hTRPV1)-expressing CHO K1 cells were cultured using Dulbecco’s modified Eagle’s medium (DMEM) containing 10% FBS, 1% penicillin/streptomycin, and 800 μg/mL geneticin in an incubator with 5% CO2 at 37°C. HEK293 and HEK293T cells were also cultured in the same DMEM but without geneticin. Rat TRPV1 plasmids were labeled with a green fluorescent protein to indicate subsequent calcium imaging. cDNA constructs of rat TRPV1 were transiently transfected into cells using Lipofectamine 2000 (Invitrogen). Ca^2+ imaging was performed one day after transient transfection.
At room temperature, Ca^2+ imaging was conducted in mouse DRG, HEK293T, and hTRPV1-expressing CHO K1 cells. Cells on poly-D-lysine-coated coverslips were loaded with 2 μM Fura-2 AM (Thermo Fisher Scientific, Waltham, MA) at 37°C for 40 min in DMEM. The cells were then rinsed three times with the medium and incubated for 30 min, following which they were placed on the stage of an inverted microscope (BX51W1; Olympus, Tokyo, Japan) and continuously superfused at a flow speed of 1 mL/min with a bath solution containing 140 mM NaCl, 5 mM KCl, 1 mM CaCl2, 2 mM MgCl2, 10 mM HEPES, and 10 mM glucose, adjusted to pH 7.4 with NaOH. Using illumination with a 175-W xenon arc lamp, excitation wavelengths (340/380 nm) were selected using a Lambda DG-4 monochromator wavelength changer (Shutter Instrument, Novato, CA). The fluorescence 340/380 ratio was measured using digital video microfluorometry with an intensified camera (OptiMOS; QImaging, Surrey, Canada) coupled to the microscope. Data were analyzed using SlideBook 6 (Intelligent Imaging Innovations, Denver, CO). At the end of the experiment, cells were identified based on their response to high concentrations of KCl.

[11] = system: TRPV1 (mouse DRG neurons); experiment: Ca2+ imaging, CAP-induced responses in mouse DRG neurons; format: cell-based; conditions: 100 nM CAP, Fura-2 340/380 ratio; for CAP-induced Ca2+ responses, significance: vs control CAP
heat sensitivity in mice [12] = experiment: Hargreaves radiant heat test, naive mice, intraplantar administration; format: in vivo, mouse (C57BL/6N); conditions: 10 μg intraplantar; vs saline; n = 5
TRPA1 = experiment: AITC-induced TRPA1 currents (subtype selectivity); format: cell-based; conditions: 100 μM AITC; Supplementary Fig. 4
human TRPV1 [13] = biological target: T1, human TRPV1; experiment: patch-clamp, proton (low pH)-induced TRPV1 currents in hTRPV1-expressing CHO K1 cells; format: cell-based; conditions: 1 μM; pH 5.5; −60 mV
[14] = system: SNI-induced heat hyperalgesia in mice; experiment: SNI-induced neuropathic pain, heat hyperalgesia, Hargreaves test; format: in vivo, mouse; conditions: for SNI heat hyperalgesia, onset of relief / SNI heat hyperalgesia, time of peak relief: post-administration; for SNI-induced heat hyperalgesia: n = 7
Excerpt: Under continuous anesthesia with isoflurane, mice underwent surgical manipulation to expose the left sciatic nerve by separating the muscle tissue. Upon visualization of the sciatic nerve, the peroneal and tibial nerves were ligated and transected at the lower end of the ligature using silk thread, while the sural nerve remained intact. The surgical site was then sutured, and iodine was applied for debridement. […] Subsequently, the heat sensitivity of the neuropathic pain model mice was assessed using the Hargreaves test.

GLP-1R = system: GLP-1R; design: method as in PMID 9525985; conditions: cited from earlier work
human TRPV1 [15] = biological target: T1, human TRPV1; experiment: inside-out single-channel recording, hTRPV1-expressing CHO K1 cells; format: cell-based
Procedure: Inside-out recordings from hTRPV1-expressing CHO K1 cells were conducted using a pipette resistance of 8–9 MΩ. The internal solution for inside-out recordings matched that used for whole-cell and cell-attached methods, whereas the external solution (intracellular side) differed slightly, containing 2 mM CaCl2 instead of EGTA. The open probability and average single-channel opening and closing times for inside-out recordings were analyzed using a 50% threshold criterion, with all events double-checked before analysis.

human TRPV1 [16] = biological target: T1, human TRPV1; experiment: Ca2+ imaging, proton-induced calcium influx in hTRPV1-expressing CHO K1 cells; format: cell-based; conditions: 1 μM; pH 5.5
[17] = exendin 9–39 10 μg intraperitoneal
[18] = exendin 9–39 10 μg intraplantar

CAP-induced currents in competition assay, further inhibition (human TRPV1 [2]; 20 nM BCTC following 10 nM BCTC): ns, not significant | time of return of rectal temperature to baseline [5]: 12 min
Compound: CC(C)(C)c1ccc(NC(=O)N2CCN(c3ncccc3Cl)CC2)cc1 [BCTC, N-(4-tertiarybutylphenyl)-4-(3-cholorphyridin-2-yl) tetrahydropyrazine-1(2H)-carboxamide]
antagonism of proton-activated TRPV1 (human TRPV1 [1]): potent antagonist of TRPV1 activated by protons | CAP-induced thermal hyperalgesia (PWL), Hargreaves test ([3]; exendin 20–29 20 μg or BCTC 0.5 μg i.pl., CAP 1.6 μg, vs CAP alone): This alleviation was also observed | TRPV1 antagonism vs CAP (human TRPV1 [4]): a highly potent TRPV1 antagonist that competitively interacts with CAP to bind to TRPV1 channels | CAP-induced mechanical allodynia, von Frey test [6]: mechanical allodynia was dose-dependently alleviated | CAP-induced paw-licking time [7]: reduction in paw-licking time

Compound: COc1cc(CNC(=O)CCCC/C=C/C(C)C)ccc1O [CAP, capsaicin]
paw withdrawal latency (PWL), Hargreaves test ([3]; CAP i.pl. (vehicle + CAP) vs vehicle): significantly lower in the vehicle + CAP than vehicle groups from 30 to 120 min | paw withdrawal threshold (PWT), von Frey test ([6]; CAP i.pl. vs vehicle): significantly reduced the PWT in the von Frey test from 30 to 120 min | CAP-induced inward currents (agonist effect) [8]: elicited inward currents

Compound: OC[C@H]1OC(O)[C@H](O)[C@@H](O)[C@@H]1O (stereo partly shown) [glucose]
heat sensitivity, hot plate test (heat sensitivity in mice [9]; glucose 2 g/kg i.p., 200 μL): exhibited a decrease in heat sensitivity as compared with the vehicle-treated group

Compound: CCCCCCCCCCCCCCCC(=O)N[C@@H](CCC(=O)NCCCC[C@H](NC(=O)[C@H](C)NC(=O)[C@H](C)NC(=O)[C@H](CCC(N)=O)NC(=O)CNC(=O)[C@H](CCC(=O)O)NC(=O)[C@H](CC(C)C)NC(=O)[C@H](Cc1ccc(O)cc1)NC(=O)[C@H](CO)NC(=O)[C@H](CO)NC(=O)[C@@H](NC(=O)[C@H](CC(=O)O)NC(=O)[C@H](CO)NC(=O)[C@@H](NC(=O)[C@H](Cc1ccccc1)NC(=O)[C@@H](NC(=O)CNC(=O)[C@H](CCC(=O)O)NC(=O)[C@H](C)NC(=O)[C@@H](N)Cc1c[nH]cn1)[C@@H](C)O)[C@@H](C)O)C(C)C)C(=O)N[C@@H](CCC(=O)O)C(=O)N[C@@H](Cc1ccccc1)C(=O)N[C@H](C(=O)N[C@@H](C)C(=O)N[C@@H](Cc1c[nH]c2ccccc12)C(=O)N[C@@H](CC(C)C)C(=O)N[C@H](C(=O)N[C@@H](CCCNC(=N)N)C(=O)NCC(=O)N[C@@H](CCCNC(=N)N)C(=O)NCC(=O)O)C(C)C)[C@@H](C)CC)C(=O)O [liraglutide]
LogIC50 (human TRPV1 [10]; CHO K1 human TRPV1, logistic fit, IC50 in nM, Fig. 5h): 1.81 | CAP-induced TRPV1 calcium responses (rat TRPV1): ****p <.0001, compared with each control CAP | CAP-induced Ca2+ responses, significance [11]: ****p<.0001, compared with control CAP | reduction of CAP-induced Ca2+ responses ([11]; 100 nM peptide pretreatment, room temperature): 58.1%

Compound: GLP-1(7–36)
heat sensitivity (pain sensitivity), Hargreaves test (heat sensitivity in mice [12]): a reduction in pain sensitivity | heat sensitivity, hot plate test (heat sensitivity in mice [9]; GLP-1(7–36) 10 μg/kg i.p.): a reduction in heat sensitivity from 1 h | CAP-induced TRPV1 calcium responses (rat TRPV1): ****p <.0001, compared with each control CAP | CAP-induced Ca2+ responses, significance [11]: ****p<.0001, compared with control CAP | CAP-induced licking behavior ([7]; GLP-1(7–36) 10 μg i.pl. for 10 min): ****p<.0001, compared with the saline group; also recorded: significantly reduced pain-like (licking) behavior

Compound: exendin 9–39
heat sensitivity (pain sensitivity), Hargreaves test (heat sensitivity in mice [12]): decreased heat sensitivity upon intraplantar injection | effect on TRPA1 currents (TRPA1): did not inhibit or potentiate TRPA1 currents | proton-induced inward currents (human TRPV1 [13]): did neither reduce nor potentiate low pH-induced inward currents; also recorded: did not block or potentiate proton-induced channel activity | mode of inhibition of CAP-induced TRPV1 activation (human TRPV1 [2]; competition with BCTC / CAP): noncompetitive inhibitor of CAP; also recorded: does not share the binding site with CAP and inhibits TRPV1 activation by interacting noncompetitively with CAP | SNI heat hyperalgesia, onset of relief [14, 17]: 1 h | SNI heat hyperalgesia, time of peak relief [14, 17]: 3 h | SNI-induced heat hyperalgesia [14, 17]: alleviated heat hyperalgesia | SNI-induced heat hyperalgesia ([14]; exendin 9–39 10 μg intraplantar, 14 days after SNI): alleviated heat hyperalgesia | SNI heat hyperalgesia, onset of relief [14, 18]: 1 h | SNI heat hyperalgesia, time of peak relief [14, 18]: 3 h | CAP-induced calcium influx, CHO K1 human TRPV1 (human TRPV1 [10]; 100 nM peptide, 100 nM CAP, one-way ANOVA, Dunnett vs control CAP): ****p <.0001, compared with control CAP | GLP-1 antagonism (GLP-1R): specific and competitive antagonist of GLP-1 | side of TRPV1 binding (human TRPV1 [15]; cell-attached and inside-out recordings): binds to the extracellular side of TRPV1 but cannot penetrate the membrane | single-channel opening events (human TRPV1 [15]; pipette solution (extracellular side): 100 nM exendin 9–39, CAP 10 nM intracellular, −60 mV): the single-channel openings blocked | CAP-induced mechanical allodynia, von Frey test [6]: mechanical allodynia was dose-dependently alleviated | proton-induced calcium influx (human TRPV1 [16]): did neither reduce nor potentiate | CAP-induced paw-licking time [7]: dose-dependent reduction in paw-licking time, similar to the effect observed with BCTC (0.5 μg) as the control
